Assay results as given in ChEMBL document CHEMBL1201861, “Genomics of Drug Sensitity in Cancer screening data, Wellcome Trust Sanger Institute”.

Experiments:
Assay in all cases: cells
TE-8 = type: functional, cell-based, Homo sapiens; settings: Homo sapiens, TE-8
Description: SANGER: Inhibition of human TE-8 cell growth in a cell viability assay.

OCUB-M = type: functional, cell-based, Homo sapiens; settings: Homo sapiens, OCUB-M
Description: SANGER: Inhibition of human OCUB-M cell growth in a cell viability assay.

NCI-H2087 = type: functional, cell-based, Homo sapiens; settings: Homo sapiens, NCI-H2087
Description: SANGER: Inhibition of human NCI-H2087 cell growth in a cell viability assay.

C3A = type: functional, cell-based, Homo sapiens; settings: Homo sapiens, C3A
Description: SANGER: Inhibition of human C3A cell growth in a cell viability assay.

JVM-3 = type: functional, cell-based; settings: Homo sapiens
Description: SANGER: Inhibition of human JVM-3 cell growth in a cell viability assay.

CAL-62 = type: functional, cell-based, Homo sapiens; settings: Homo sapiens, CAL-62
Description: SANGER: Inhibition of human CAL-62 cell growth in a cell viability assay.

OVCAR-8 = type: functional, cell-based, Homo sapiens; settings: Homo sapiens, OVCAR-8
Description: SANGER: Inhibition of human OVCAR-8 cell growth in a cell viability assay.

COLO-824 = type: functional, cell-based, Homo sapiens; settings: Homo sapiens, COLO-824
Description: SANGER: Inhibition of human COLO-824 cell growth in a cell viability assay.

NCI-H2405 = type: functional, cell-based, Homo sapiens; settings: Homo sapiens, NCI-H2405
Description: SANGER: Inhibition of human NCI-H2405 cell growth in a cell viability assay.

NCI-H82 = type: functional, cell-based; settings: Homo sapiens
Description: SANGER: Inhibition of human NCI-H82 cell growth in a cell viability assay.

SW1990 = type: functional, cell-based, Homo sapiens; settings: Homo sapiens, SW1990
Description: SANGER: Inhibition of human SW1990 cell growth in a cell viability assay.

EOL1 = type: functional, cell-based; settings: Homo sapiens
Description: SANGER: Inhibition of human EoL-1-cell cell growth in a cell viability assay.

BPH-1 = type: functional, cell-based, Homo sapiens; settings: Homo sapiens, BPH-1
Description: SANGER: Inhibition of human BPH-1 cell growth in a cell viability assay.

J-RT3-T3-5 = type: functional, cell-based; settings: Homo sapiens
Description: SANGER: Inhibition of human J-RT3-T3-5 cell growth in a cell viability assay.

CAKI-1 = type: functional, cell-based, Homo sapiens; settings: Homo sapiens, CAKI-1
Description: SANGER: Inhibition of human CAKI-1 cell growth in a cell viability assay.

LAN-6 = type: functional, cell-based, Homo sapiens; settings: Homo sapiens, LAN-6
Description: SANGER: Inhibition of human LAN-6 cell growth in a cell viability assay.

KINGS-1 = type: functional, cell-based, Homo sapiens; settings: Homo sapiens, KINGS-1
Description: SANGER: Inhibition of human KINGS-1 cell growth in a cell viability assay.

SiHa = type: functional, cell-based, Homo sapiens; settings: Homo sapiens, SiHa
Description: SANGER: Inhibition of human SiHa cell growth in a cell viability assay.

no-10 = type: functional, cell-based, Homo sapiens; settings: Homo sapiens
Description: SANGER: Inhibition of human no-10 cell growth in a cell viability assay.

NKM-1 = type: functional, cell-based; settings: Homo sapiens
Description: SANGER: Inhibition of human NKM-1 cell growth in a cell viability assay.

KS-1 = type: functional, cell-based, Homo sapiens; settings: Homo sapiens, KS-1
Description: SANGER: Inhibition of human KS-1 cell growth in a cell viability assay.

MPP-89 = type: functional, cell-based, Homo sapiens; settings: Homo sapiens, MPP-89
Description: SANGER: Inhibition of human MPP-89 cell growth in a cell viability assay.

CAL-85-1 = type: functional, cell-based; settings: Homo sapiens
Description: SANGER: Inhibition of human CAL-85-1 cell growth in a cell viability assay.

NCI-H292 = type: functional, cell-based, Homo sapiens; settings: Homo sapiens, NCI-H292
Description: SANGER: Inhibition of human NCI-H292 cell growth in a cell viability assay.

ES1 = type: functional, cell-based, Homo sapiens; settings: Homo sapiens, ES1
Description: SANGER: Inhibition of human ES1 cell growth in a cell viability assay.

MG-63 = type: functional, cell-based, Homo sapiens; settings: Homo sapiens, MG-63
Description: SANGER: Inhibition of human MG-63 cell growth in a cell viability assay.

NCI-H2347 = type: functional, cell-based, Homo sapiens; settings: Homo sapiens, NCI-H2347
Description: SANGER: Inhibition of human NCI-H2347 cell growth in a cell viability assay.

SAOS-2 = type: functional, cell-based, Homo sapiens; settings: Homo sapiens, SAOS-2
Description: SANGER: Inhibition of human Saos-2 cell growth in a cell viability assay.

TCC-SUP = type: functional, cell-based, Homo sapiens; settings: Homo sapiens, TCC-SUP
Description: SANGER: Inhibition of human TCCSUP cell growth in a cell viability assay.

ESS-1 = type: functional, cell-based, Homo sapiens; settings: Homo sapiens, ESS-1
Description: SANGER: Inhibition of human ESS-1 cell growth in a cell viability assay.

SW626 = type: functional, cell-based, Homo sapiens; settings: Homo sapiens, SW626
Description: SANGER: Inhibition of human SW626 cell growth in a cell viability assay.

HCC1187 = type: functional, cell-based, Homo sapiens; settings: Homo sapiens, HCC1187
Description: SANGER: Inhibition of human HCC1187 cell growth in a cell viability assay.

HCC1395 = type: functional, cell-based, Homo sapiens; settings: Homo sapiens, HCC1395
Description: SANGER: Inhibition of human HCC1395 cell growth in a cell viability assay.

KYSE-70 cell line = type: functional, cell-based, Homo sapiens; settings: Homo sapiens, KYSE-70
Description: SANGER: Inhibition of human KYSE-70 cell growth in a cell viability assay.

COLO-792 = type: functional, cell-based, Homo sapiens; settings: Homo sapiens, COLO-792
Description: SANGER: Inhibition of human COLO-792 cell growth in a cell viability assay.

SW872 = type: functional, cell-based, Homo sapiens; settings: Homo sapiens, SW872
Description: SANGER: Inhibition of human SW872 cell growth in a cell viability assay.

KNS-42 = type: functional, cell-based, Homo sapiens; settings: Homo sapiens, KNS-42
Description: SANGER: Inhibition of human KNS-42 cell growth in a cell viability assay.

AN3-CA = type: functional, cell-based; settings: Homo sapiens
Description: SANGER: Inhibition of human AN3-CA cell growth in a cell viability assay.

RVH-421 = type: functional, cell-based, Homo sapiens; settings: Homo sapiens, RVH-421
Description: SANGER: Inhibition of human RVH-421 cell growth in a cell viability assay.

NB5 = type: functional, cell-based, Homo sapiens; settings: Homo sapiens, NB5
Description: SANGER: Inhibition of human NB5 cell growth in a cell viability assay.

ACN = type: functional, cell-based, Homo sapiens; settings: Homo sapiens, ACN
Description: SANGER: Inhibition of human ACN cell growth in a cell viability assay.

D-247MG = type: functional, cell-based, Homo sapiens; settings: Homo sapiens, D-247MG
Description: SANGER: Inhibition of human D-247MG cell growth in a cell viability assay.

LN-405 = type: functional, cell-based, Homo sapiens; settings: Homo sapiens, LN-405
Description: SANGER: Inhibition of human LN-405 cell growth in a cell viability assay.

COR-L23 = type: functional, cell-based, Homo sapiens; settings: Homo sapiens, COR-L23
Description: SANGER: Inhibition of human COR-L23 cell growth in a cell viability assay.

NCI-H661 = type: functional, cell-based, Homo sapiens; settings: Homo sapiens, NCI-H661
Description: SANGER: Inhibition of human NCI-H661 cell growth in a cell viability assay.

C32 = type: functional, cell-based, Homo sapiens; settings: Homo sapiens, C32
Description: SANGER: Inhibition of human C32 cell growth in a cell viability assay.

SF-126 = type: functional, cell-based, Homo sapiens; settings: Homo sapiens, SF-126
Description: SANGER: Inhibition of human SF126 cell growth in a cell viability assay.

SAS = type: functional, cell-based, Homo sapiens; settings: Homo sapiens, SAS
Description: SANGER: Inhibition of human SAS cell growth in a cell viability assay.

NCI-H358 = type: functional, cell-based, Homo sapiens; settings: Homo sapiens, NCI-H358
Description: SANGER: Inhibition of human NCI-H358 cell growth in a cell viability assay.

SK-LU-1 = type: functional, cell-based, Homo sapiens; settings: Homo sapiens, SK-LU-1
Description: SANGER: Inhibition of human SK-LU-1 cell growth in a cell viability assay.

LB373-MEL-D = type: functional, cell-based, Homo sapiens; settings: Homo sapiens, LB373-MEL-D
Description: SANGER: Inhibition of human LB373-MEL-D cell growth in a cell viability assay.

## COc1ccc(-c2ccc3c(N4CCOC[C@@H]4C)nc(N4CCOC[C@@H]4C)nc3n2)cc1CO [AZD-8055]
TE-8
  IC50: 1460 nM
OCUB-M
  IC50: 827 nM
NCI-H2087
  IC50: > 2000 nM
C3A
  IC50: > 2000 nM
JVM-3
  IC50: 463 nM
CAL-62
  IC50: 799 nM
OVCAR-8
  IC50: > 2000 nM
COLO-824
  IC50: > 2000 nM
NCI-H2405
  IC50: 1150 nM
NCI-H82
  IC50: > 2000 nM
SW1990
  IC50: 1480 nM
EOL1
  IC50: 65.7 nM
BPH-1
  IC50: 884 nM
J-RT3-T3-5
  IC50: 532 nM
CAKI-1
  IC50: 746 nM
LAN-6
  IC50: > 2000 nM
KINGS-1
  IC50: > 2000 nM
SiHa
  IC50: > 2000 nM
no-10
  IC50: > 2000 nM
NKM-1
  IC50: 200 nM
KS-1
  IC50: 1250 nM
MPP-89
  IC50: 469 nM
CAL-85-1
  IC50: 1530 nM
NCI-H292
  IC50: 292 nM
ES1
  IC50: 555 nM
MG-63
  IC50: 274 nM
NCI-H2347
  IC50: 824 nM
SAOS-2
  IC50: 1820 nM
TCC-SUP
  IC50: 1470 nM
ESS-1
  IC50: > 2000 nM
SW626
  IC50: > 2000 nM
HCC1187
  IC50: > 2000 nM
HCC1395
  IC50: > 2000 nM
KYSE-70 cell line
  IC50: 1740 nM
COLO-792
  IC50: > 2000 nM
SW872
  IC50: 1390 nM
KNS-42
  IC50: > 2000 nM
AN3-CA
  IC50: 79.5 nM
RVH-421
  IC50: 636 nM
NB5
  IC50: 703 nM
ACN
  IC50: 943 nM
D-247MG
  IC50: > 2000 nM
LN-405
  IC50: 1280 nM
COR-L23
  IC50: 1350 nM
NCI-H661
  IC50: 1450 nM
C32
  IC50: 725 nM
SF-126
  IC50: 887 nM
SAS
  IC50: > 2000 nM
NCI-H358
  IC50: > 2000 nM
SK-LU-1
  IC50: 392 nM

## C[C@]1(O)C[C@@H](c2nc(-c3ccc4ccc(-c5ccccc5)nc4c3)c3c(N)nccn32)C1 [LINSITINIB]
TE-8
  IC50: 1310 nM
OCUB-M
  IC50: > 2560 nM
NCI-H2087
  IC50: > 2560 nM
C3A
  IC50: > 2560 nM
JVM-3
  IC50: > 2560 nM
CAL-62
  IC50: > 2560 nM
OVCAR-8
  IC50: > 2560 nM
COLO-824
  IC50: > 2560 nM
LB373-MEL-D
  IC50: > 2560 nM
NCI-H2405
  IC50: > 2560 nM
NCI-H82
  IC50: > 2560 nM
SW1990
  IC50: > 2560 nM
EOL1
  IC50: > 2560 nM
BPH-1
  IC50: > 2560 nM
J-RT3-T3-5
  IC50: > 2560 nM
CAKI-1
  IC50: > 2560 nM
LAN-6
  IC50: 263 nM
KINGS-1
  IC50: > 2560 nM
SiHa
  IC50: > 2560 nM
no-10
  IC50: > 2560 nM
NKM-1
  IC50: > 2560 nM
KS-1
  IC50: 38.4 nM
MPP-89
  IC50: > 2560 nM
CAL-85-1
  IC50: 1230 nM
NCI-H292
  IC50: > 2560 nM
ES1
  IC50: 107 nM
MG-63
  IC50: > 2560 nM
NCI-H2347
  IC50: > 2560 nM
SAOS-2
  IC50: 165 nM
TCC-SUP
  IC50: > 2560 nM
ESS-1
  IC50: > 2560 nM
SW626
  IC50: > 2560 nM
HCC1187
  IC50: > 2560 nM
HCC1395
  IC50: > 2560 nM
KYSE-70 cell line
  IC50: > 2560 nM
COLO-792
  IC50: > 2560 nM
SW872
  IC50: > 2560 nM
KNS-42
  IC50: > 2560 nM
AN3-CA
  IC50: > 2560 nM
RVH-421
  IC50: > 2560 nM
NB5
  IC50: > 2560 nM
ACN
  IC50: > 2560 nM
LN-405
  IC50: > 2560 nM
COR-L23
  IC50: > 2560 nM
NCI-H661
  IC50: > 2560 nM
C32
  IC50: > 2560 nM
SF-126
  IC50: > 2560 nM
SAS
  IC50: > 2560 nM
NCI-H358
  IC50: 671 nM
SK-LU-1
  IC50: > 2560 nM
